Data published in ChEMBL document CHEMBL5584229, “Application and challenges of nitrogen heterocycles in PROTAC linker” (Eur J Med Chem, 2024).
Each block holds one molecule with its values, some of them ahead of it.

How the values were obtained:
[1] = target: T1, von Hippel-Lindau disease tumor suppressor/Mitogen-activated protein kinase 14 (Homo sapiens, UniProt Q16539+P40337); assay: PROTAC activity at VHL/N-terminal His-tagged human p38alpha in MDA-MB-231 cells assessed as p38alpha degradation; type: cell-based
[2] = target: Protein cereblon/Androgen receptor (Homo sapiens, UniProt P10275+Q96SW2); assay: PROTAC activity at AR/CRBN in human A549 cells assessed as induction of androgen receptor degradation measured after 1 hr by Western blot analysis; type: cell-based
[3] = target: E3 ubiquitin-protein ligase Mdm2/Histone deacetylase 1 (Homo sapiens) (UniProt Q00987+Q13547); assay: PROTAC activity at MDM2/HDAC1 in human HCT-116 cells assessed as induction of HDAC1 degradation at 10 uM by Western blot analysis relative to control; type: cell-based
[4] = test system: A549; assay: Cytotoxicity against human A549 cells assessed as reduction in cell growth incubated for 5 days by MTT assay; type: functional, cell-based; conditions: A549, 120 h
[5] = AUC (0 to t) in ICR mouse at 2 mg/kg, iv; type: ADME, organism-based; conditions: in vivo
[6] = target: T1, von Hippel-Lindau disease tumor suppressor/Mitogen-activated protein kinase 14; assay: PROTAC activity at VHL/N-terminal His-tagged human p38alpha in T47D cells assessed as p38alpha degradation; type: cell-based
[7] = target: T2, Protein cereblon/ALK tyrosine kinase receptor (Homo sapiens, UniProt Q9UM73+Q96SW2); assay: PROTAC activity at CRBN/ALK in human NCI-H3122 cells assessed as induction of ALK degradation incubated for 24 hrs by Western blot analysis; type: cell-based
Target sequence in this assay (Q9UM73 whole entry): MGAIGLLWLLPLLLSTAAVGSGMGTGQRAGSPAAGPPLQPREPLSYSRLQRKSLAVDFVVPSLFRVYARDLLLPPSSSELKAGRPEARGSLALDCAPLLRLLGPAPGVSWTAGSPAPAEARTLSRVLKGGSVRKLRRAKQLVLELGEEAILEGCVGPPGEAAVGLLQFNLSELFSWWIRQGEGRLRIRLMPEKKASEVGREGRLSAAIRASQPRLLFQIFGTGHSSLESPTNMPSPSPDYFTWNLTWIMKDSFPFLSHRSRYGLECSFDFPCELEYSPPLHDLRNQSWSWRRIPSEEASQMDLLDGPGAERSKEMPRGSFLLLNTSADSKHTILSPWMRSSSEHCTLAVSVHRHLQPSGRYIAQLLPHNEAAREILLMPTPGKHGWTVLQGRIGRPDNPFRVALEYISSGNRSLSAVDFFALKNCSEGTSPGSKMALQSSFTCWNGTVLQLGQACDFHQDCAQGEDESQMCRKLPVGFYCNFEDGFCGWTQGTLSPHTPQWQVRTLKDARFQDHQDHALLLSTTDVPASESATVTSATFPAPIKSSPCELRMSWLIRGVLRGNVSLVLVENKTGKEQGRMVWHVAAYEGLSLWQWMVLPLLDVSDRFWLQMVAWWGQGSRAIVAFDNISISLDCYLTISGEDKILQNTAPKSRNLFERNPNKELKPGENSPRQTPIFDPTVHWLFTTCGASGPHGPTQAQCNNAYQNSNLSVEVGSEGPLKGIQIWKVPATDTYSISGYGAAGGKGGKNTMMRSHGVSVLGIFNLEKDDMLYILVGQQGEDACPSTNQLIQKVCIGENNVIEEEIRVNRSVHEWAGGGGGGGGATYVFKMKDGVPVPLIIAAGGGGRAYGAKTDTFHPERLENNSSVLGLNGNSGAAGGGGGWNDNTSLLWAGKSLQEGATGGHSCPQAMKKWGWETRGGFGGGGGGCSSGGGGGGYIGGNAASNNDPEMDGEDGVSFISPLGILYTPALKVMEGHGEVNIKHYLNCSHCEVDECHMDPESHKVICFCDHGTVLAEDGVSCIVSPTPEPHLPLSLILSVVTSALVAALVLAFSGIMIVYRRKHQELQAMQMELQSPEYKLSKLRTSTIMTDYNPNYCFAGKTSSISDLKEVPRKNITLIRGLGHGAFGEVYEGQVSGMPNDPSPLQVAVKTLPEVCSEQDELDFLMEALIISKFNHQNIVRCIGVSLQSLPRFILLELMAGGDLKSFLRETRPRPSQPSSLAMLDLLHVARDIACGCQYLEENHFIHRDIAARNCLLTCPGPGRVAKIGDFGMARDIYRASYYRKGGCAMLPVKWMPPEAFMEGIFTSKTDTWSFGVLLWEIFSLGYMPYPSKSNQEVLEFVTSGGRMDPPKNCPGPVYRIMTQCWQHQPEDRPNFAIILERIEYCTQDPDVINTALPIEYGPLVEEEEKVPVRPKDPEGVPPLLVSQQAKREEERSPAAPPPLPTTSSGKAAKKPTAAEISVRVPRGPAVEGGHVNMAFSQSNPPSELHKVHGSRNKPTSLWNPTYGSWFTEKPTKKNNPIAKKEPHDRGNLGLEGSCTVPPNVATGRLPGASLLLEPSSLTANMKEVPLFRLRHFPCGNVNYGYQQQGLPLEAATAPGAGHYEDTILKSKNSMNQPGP
Target sequence in this assay (Q96SW2 whole entry): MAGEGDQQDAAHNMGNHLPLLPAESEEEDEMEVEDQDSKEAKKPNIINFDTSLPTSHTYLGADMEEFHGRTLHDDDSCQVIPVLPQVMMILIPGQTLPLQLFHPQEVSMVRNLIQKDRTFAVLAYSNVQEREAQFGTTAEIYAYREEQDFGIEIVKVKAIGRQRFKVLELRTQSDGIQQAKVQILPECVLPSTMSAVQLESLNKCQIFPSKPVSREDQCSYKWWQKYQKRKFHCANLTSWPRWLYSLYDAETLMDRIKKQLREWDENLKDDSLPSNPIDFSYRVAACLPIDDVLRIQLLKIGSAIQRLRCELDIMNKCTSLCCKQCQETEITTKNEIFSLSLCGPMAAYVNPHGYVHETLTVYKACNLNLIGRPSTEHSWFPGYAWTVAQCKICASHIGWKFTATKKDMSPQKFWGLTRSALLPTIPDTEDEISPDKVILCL

[8] = target: T2, Protein cereblon/ALK tyrosine kinase receptor; assay: PROTAC activity at CRBN/ALK in human NCI-H3122 cells assessed as induction of ALK degradation by measuring maximal degradation at […] incubated for 24 hrs by Western blot analysis; type: cell-based
[9] = target: Von Hippel-Lindau disease tumor suppressor/Elongin B/Elongin C (Homo sapiens, UniProt P40337); assay: Inhibition of 6xHis-tagged VHL (1 to 213 residues)/Elongin B/Elogin C (unknown origin) expressed in Escherichia coli BL21 cells by fluorescence polarization assay
[10] = test system: HeLa; assay: Antiproliferative activity against human HeLa cells assessed as reduction in cell viability incubated for 24 hrs by MTT assay; type: functional, cell-based
[11] = target: T3, Protein cereblon/Receptor-type tyrosine-protein kinase FLT3 (Homo sapiens, UniProt P36888+Q96SW2); assay: PROTAC activity at CRBN/FLT3 in human MV4-11 cells harboring FLT3-ITD mutation assessed as induction of FLT3 degradation incubated for 24 hrs by immunoblotting analysis; type: cell-based
[12] = target: T3, Protein cereblon/Receptor-type tyrosine-protein kinase FLT3; assay: PROTAC activity at CRBN/FLT3-ITD mutant in human MV4-11 cells assessed as protein degradation by Western blot analysis; type: cell-based
[13] = test system: von Hippel-Lindau disease tumor suppressor/Epidermal growth factor receptor (Homo sapiens), P00533+P40337 [UNDEFINED MUTATION]; assay: PROTAC activity at VHL/EGFR del19 mutant in human HCC827 cells assessed as maximal degradation incubated for 24 hrs by immunoblot analysis relative to control; type: cell-based
[14] = target: Protein cereblon/Cyclin-dependent kinase 9 (Homo sapiens) (UniProt P50750+Q96SW2); assay: Protac activity at CRBN/CDK9 in human HeLa cells assessed as […] at 1 uM measured after 6 hrs by Western blot analysis; type: cell-based

T1 sequence (Q16539 whole entry): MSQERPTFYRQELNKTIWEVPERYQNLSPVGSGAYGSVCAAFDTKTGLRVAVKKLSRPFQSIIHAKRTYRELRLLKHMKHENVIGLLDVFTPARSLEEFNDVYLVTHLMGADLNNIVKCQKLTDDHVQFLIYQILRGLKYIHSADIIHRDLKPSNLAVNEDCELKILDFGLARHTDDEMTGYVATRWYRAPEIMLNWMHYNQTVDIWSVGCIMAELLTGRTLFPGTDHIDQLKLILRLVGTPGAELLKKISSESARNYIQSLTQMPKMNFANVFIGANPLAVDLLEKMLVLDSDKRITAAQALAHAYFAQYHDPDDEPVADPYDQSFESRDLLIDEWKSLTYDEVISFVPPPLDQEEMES
T1 sequence (P40337 whole entry): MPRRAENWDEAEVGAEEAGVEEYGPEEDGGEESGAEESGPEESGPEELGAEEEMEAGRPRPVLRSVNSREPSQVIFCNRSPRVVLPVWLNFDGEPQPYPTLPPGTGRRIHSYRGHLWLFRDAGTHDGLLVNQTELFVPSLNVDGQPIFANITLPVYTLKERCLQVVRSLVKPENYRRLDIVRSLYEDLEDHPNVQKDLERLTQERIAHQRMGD
T3 sequence (P36888 whole entry, looked up, change not shown): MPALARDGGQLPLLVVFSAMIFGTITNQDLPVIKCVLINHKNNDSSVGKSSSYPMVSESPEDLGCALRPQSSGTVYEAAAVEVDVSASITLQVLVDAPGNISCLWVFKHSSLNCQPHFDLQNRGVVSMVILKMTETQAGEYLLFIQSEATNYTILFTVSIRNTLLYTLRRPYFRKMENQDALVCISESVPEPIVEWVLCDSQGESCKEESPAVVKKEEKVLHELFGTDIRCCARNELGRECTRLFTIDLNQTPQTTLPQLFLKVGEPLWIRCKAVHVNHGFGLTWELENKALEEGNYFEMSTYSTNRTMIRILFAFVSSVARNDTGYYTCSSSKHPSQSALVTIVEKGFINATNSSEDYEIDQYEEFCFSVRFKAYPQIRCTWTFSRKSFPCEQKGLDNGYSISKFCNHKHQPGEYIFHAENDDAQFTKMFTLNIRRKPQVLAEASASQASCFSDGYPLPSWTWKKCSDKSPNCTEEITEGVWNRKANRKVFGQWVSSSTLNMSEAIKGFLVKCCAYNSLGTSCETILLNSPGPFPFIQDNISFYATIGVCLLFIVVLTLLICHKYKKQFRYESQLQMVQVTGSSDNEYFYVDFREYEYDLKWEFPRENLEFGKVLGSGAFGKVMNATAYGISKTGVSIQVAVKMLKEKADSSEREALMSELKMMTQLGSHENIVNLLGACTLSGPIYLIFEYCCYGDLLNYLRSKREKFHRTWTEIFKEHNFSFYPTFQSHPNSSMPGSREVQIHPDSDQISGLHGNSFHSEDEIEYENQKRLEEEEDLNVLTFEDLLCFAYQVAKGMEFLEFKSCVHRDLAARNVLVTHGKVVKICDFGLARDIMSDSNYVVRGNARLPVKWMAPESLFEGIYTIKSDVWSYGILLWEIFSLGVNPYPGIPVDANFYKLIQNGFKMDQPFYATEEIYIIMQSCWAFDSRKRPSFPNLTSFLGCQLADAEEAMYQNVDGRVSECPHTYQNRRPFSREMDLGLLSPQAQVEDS
T3 sequence (Q96SW2 whole entry, looked up, change not shown): as the sequence (Q96SW2 whole entry) above
Chain of Von Hippel-Lindau disease tumor suppressor/Elongin B/Elongin C (P40337 whole entry, looked up, the tested form may be a part): as the sequence (P40337 whole entry) above
Chain of E3 ubiquitin-protein ligase Mdm2/Histone deacetylase 1 (Homo sapiens) (Q00987 whole entry, looked up): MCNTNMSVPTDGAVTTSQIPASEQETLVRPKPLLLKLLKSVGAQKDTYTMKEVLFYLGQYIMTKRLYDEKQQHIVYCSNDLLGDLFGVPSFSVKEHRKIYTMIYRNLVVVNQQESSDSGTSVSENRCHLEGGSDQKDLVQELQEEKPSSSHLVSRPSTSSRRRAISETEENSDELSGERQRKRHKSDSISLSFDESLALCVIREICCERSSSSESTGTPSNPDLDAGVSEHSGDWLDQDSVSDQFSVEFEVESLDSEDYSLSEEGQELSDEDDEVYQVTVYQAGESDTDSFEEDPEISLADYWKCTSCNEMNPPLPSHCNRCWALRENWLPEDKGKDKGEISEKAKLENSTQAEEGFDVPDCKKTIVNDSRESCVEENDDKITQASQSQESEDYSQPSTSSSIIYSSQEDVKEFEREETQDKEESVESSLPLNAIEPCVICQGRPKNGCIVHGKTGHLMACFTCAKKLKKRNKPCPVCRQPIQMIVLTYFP
Chain of E3 ubiquitin-protein ligase Mdm2/Histone deacetylase 1 (Homo sapiens) (Q13547 whole entry, looked up): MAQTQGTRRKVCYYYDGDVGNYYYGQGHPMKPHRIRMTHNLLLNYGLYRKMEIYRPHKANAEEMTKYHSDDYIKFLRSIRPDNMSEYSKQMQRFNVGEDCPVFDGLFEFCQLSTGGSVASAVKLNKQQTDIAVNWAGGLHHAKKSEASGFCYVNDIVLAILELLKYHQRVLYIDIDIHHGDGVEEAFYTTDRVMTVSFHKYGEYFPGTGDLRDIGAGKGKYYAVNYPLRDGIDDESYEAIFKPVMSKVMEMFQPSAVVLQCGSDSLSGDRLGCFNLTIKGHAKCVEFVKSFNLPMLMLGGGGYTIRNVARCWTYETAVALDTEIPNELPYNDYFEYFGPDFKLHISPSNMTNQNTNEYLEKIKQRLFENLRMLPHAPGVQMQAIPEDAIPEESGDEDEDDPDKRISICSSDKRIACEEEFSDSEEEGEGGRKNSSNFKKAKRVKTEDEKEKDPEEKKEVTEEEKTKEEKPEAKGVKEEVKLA

DC50 [1]: 11.6 nM
Compound: Cc1ccc(C(=O)NCCCc2cn(CCCC(=O)NCCCCCC(=O)N[C@H](C(=O)N3C[C@H](O)C[C@H]3C(=O)N[C@@H](C)c3ccc(-c4scnc4C)cc3)C(C)(C)C)nn2)cc1-n1c(C)cc(OCc2ccc(F)cc2F)c(Br)c1=O

DC50 [2]: 75 nM
Compound: CC1(C)C(=O)N(c2ccc(C#N)c(C(F)(F)F)c2)C(=S)N1c1ccc(-c2ccc(O[C@@H]3CCN(C(=O)C4CCN(c5ccc6c(c5)C(=O)N(C5CCC(=O)NC5=O)C6=O)CC4)C3)cc2)cc1 (some centres not stated)

Emax [3]: 65.4%
Compound: COC(C)(C)CCC[C@@](C)(O)[C@H]1CC[C@]2(C)[C@@H]1[C@H](O)C[C@@H]1[C@@]3(C)CC[C@H](OCC(=O)N4CCC(CN5CCN(c6ccc7c(c6)CN(C6CCC(=O)NC6=O)C7=O)CC5)CC4)C(C)(C)[C@@H]3CC[C@]12C (some centres not stated)
IC50 [4]: 2160 nM

AUC(0-t) [5]: 24500 ng·h/mL
Compound: NC(=O)c1cccc2cn(-c3ccc(C4CCCN(CCC5CCN(CCC6CCN(c7ccc8c(c7)C(=O)N(C7CCC(=O)NC7=O)C8=O)CC6)CC5)C4)cc3)nc12 (configuration not stated)

DC50 [6]: 2.9 nM
DC50 [1]: 18.4 nM
Compound: C=C1c2cccc(NCCCCCCNC(=O)CCCn3cc(CCCCNC(=O)c4ccc(C)c(-n5c(C)cc(OCc6ccc(F)cc6F)c(Br)c5=O)c4)nn3)c2C(=O)N1C1CCC(=O)NC1=O (configuration not stated)

DC50 [7]: 0.77 nM
Emax [8]: > 99%
Compound: N#Cc1cccc(-c2ccc(=O)n(Cc3cccc(-c4ncc(OCC5CCN(CC(=O)NCCOCNc6ccc7c(c6)C(=O)N(C6CCC(=O)NC6=O)C7=O)CC5)cn4)c3)n2)c1 (configuration not stated)

DC50 [7]: 0.35 nM
Compound: N#Cc1cccc(-c2ccc(=O)n(Cc3cccc(-c4ncc(OCC5CCN(CC(=O)N6CCN(c7ccc8c(c7)C(=O)N(C7CCC(=O)NC7=O)C8=O)CC6)CC5)cn4)c3)n2)c1 (configuration not stated)

IC50 [9]: 6.8 nM
Compound: CCCS(=O)(=O)Nc1ccc(F)c(C(=O)c2c[nH]c3ncc(-c4ccc(N5CCN(CC(=O)N[C@H](C(=O)N6C[C@H](O)C[C@H]6C(=O)NCc6ccc(-c7scnc7C)cc6)C(C)(C)C)CC5)cc4)cc23)c1F

IC50 [10]: 4300 nM
Compound: CC1(NCc2cn(CCOCCOCCOCCOCCNc3cccc4c3C(=O)N(C3CCC(=O)NC3=O)C4=O)nn2)CCN(c2cnc(-c3cccc(Cl)c3Cl)c(N)n2)CC1 (configuration not stated)

Compound: CC(C)(C)c1cc(NC(=O)Nc2ccc(-c3cn(CCCCc4cn(CCCCC(=O)Nc5cccc6c5CN(C5CCC(=O)NC5=O)C6=O)nn4)c4ncnc(N)c34)cc2)no1 (configuration not stated)
DC50 [11]: 7850 nM
DC50 [12]: 76.7 nM

Compound: Cc1ncsc1-c1ccc(CNC(=O)[C@@H]2C[C@@H](O)CN2C(=O)[C@@H](NC(=O)CCCCCCCCCCn2cc(COc3cc4ncnc(Nc5ccc(F)c(Cl)c5)c4cc3NC(=O)/C=C/CN3CCCCC3)nn2)C(C)(C)C)cc1
Emax [13]: 91%

DC50 [7]: 0.6 nM
Compound: N#Cc1cccc(-c2ccc(=O)n(Cc3cccc(-c4ncc(OCC5CCN(CC(=O)N6CCN(CCNc7ccc8c(c7)C(=O)N(C7CCC(=O)NC7=O)C8=O)CC6)CC5)cn4)c3)n2)c1 (configuration not stated)

Emax [14]: 61.2%
Compound: O=C1CCC(N2C(=O)c3cccc(NC(=O)CCCCCCCn4cc(COc5c(O)cc(O)c6c(=O)cc(-c7ccccc7)oc56)nn4)c3C2=O)C(=O)N1 (configuration not stated)
